Source: patent US8877741B2, “Pyrrolidine derivatives, pharmaceutical compositions and uses thereof” (Boehringer Ingelheim International GmbH, priority 2013, dated 2014)

target: human ACC2 (Homo sapiens (Human), UniProt O00763); experiment: ACC2 assay, spectrophotometric 384 well assay (NADH-linked kinetic method); format: biochemical; conditions: human ACC2 construct lacking the 128 N-terminal amino acids; coupled lactate dehydrogenase/pyruvate kinase reaction, 340 nm, 25° C.
Experimental: Spectrophotometric 384 Well Assay
Malonyl CoA formation by acetyl CoA carboxylases is stoichometrically linked to the consumption of ATP. ACC2 activity is measured in a NADH-linked kinetic method measuring ADP generated during the ACC reaction using a coupled lactate dehydrogenase/pyruvate kinase reaction.
For biological testing, a human ACC2 construct which lacks the 128 amino acids at the N-terminus for increased solubility (nt 385-6966 in Genbank entry AJ575592) is cloned. The protein is then expressed in insect cells using a baculoviral expression system. Protein purification is performed by anion exchange.
All compounds are dissolved in dimethyl sulfoxide (DMSO) to a concentration of 10 mM.
The enzymatic reaction is then started by addition of a mixture of NADH, acetyl Coenzyme A (both 2000 μM f.c.) and ATP (500 uM f.c.). The decrease of the optical density (slope S) is then determined at 25° C. at a wavelength of 340 nm over 15 minutes in a spectrophotometric reader.
Each assay microtiter plate contains wells with vehicle instead of compound as controls for the non-inhibited enzyme (100% CTL; ‘HIGH’) and wells without acetyl-CoA as controls for non-specific NADH degradation (0% CTL; ‘LOW’).
The slope S is used for calculation of % CTL=(S(compound)−S(‘LOW’))/(S(‘HIGH’)−S(‘LOW’))*100.
For IC50 value determination, the sample slope in the presence of the test compound after subtraction of the low controls (S(compound)−S(‘LOW’)) are used.
An IC50 value is derived from the compound slopes at different dosages after subtraction of the low controls (S(compound)−S(‘LOW’)) by non-linear regression curve fitting (equation y=(A+((B−A)/(1+((C/x)^D))))).

Chain of human ACC2 (O00763 129-2458): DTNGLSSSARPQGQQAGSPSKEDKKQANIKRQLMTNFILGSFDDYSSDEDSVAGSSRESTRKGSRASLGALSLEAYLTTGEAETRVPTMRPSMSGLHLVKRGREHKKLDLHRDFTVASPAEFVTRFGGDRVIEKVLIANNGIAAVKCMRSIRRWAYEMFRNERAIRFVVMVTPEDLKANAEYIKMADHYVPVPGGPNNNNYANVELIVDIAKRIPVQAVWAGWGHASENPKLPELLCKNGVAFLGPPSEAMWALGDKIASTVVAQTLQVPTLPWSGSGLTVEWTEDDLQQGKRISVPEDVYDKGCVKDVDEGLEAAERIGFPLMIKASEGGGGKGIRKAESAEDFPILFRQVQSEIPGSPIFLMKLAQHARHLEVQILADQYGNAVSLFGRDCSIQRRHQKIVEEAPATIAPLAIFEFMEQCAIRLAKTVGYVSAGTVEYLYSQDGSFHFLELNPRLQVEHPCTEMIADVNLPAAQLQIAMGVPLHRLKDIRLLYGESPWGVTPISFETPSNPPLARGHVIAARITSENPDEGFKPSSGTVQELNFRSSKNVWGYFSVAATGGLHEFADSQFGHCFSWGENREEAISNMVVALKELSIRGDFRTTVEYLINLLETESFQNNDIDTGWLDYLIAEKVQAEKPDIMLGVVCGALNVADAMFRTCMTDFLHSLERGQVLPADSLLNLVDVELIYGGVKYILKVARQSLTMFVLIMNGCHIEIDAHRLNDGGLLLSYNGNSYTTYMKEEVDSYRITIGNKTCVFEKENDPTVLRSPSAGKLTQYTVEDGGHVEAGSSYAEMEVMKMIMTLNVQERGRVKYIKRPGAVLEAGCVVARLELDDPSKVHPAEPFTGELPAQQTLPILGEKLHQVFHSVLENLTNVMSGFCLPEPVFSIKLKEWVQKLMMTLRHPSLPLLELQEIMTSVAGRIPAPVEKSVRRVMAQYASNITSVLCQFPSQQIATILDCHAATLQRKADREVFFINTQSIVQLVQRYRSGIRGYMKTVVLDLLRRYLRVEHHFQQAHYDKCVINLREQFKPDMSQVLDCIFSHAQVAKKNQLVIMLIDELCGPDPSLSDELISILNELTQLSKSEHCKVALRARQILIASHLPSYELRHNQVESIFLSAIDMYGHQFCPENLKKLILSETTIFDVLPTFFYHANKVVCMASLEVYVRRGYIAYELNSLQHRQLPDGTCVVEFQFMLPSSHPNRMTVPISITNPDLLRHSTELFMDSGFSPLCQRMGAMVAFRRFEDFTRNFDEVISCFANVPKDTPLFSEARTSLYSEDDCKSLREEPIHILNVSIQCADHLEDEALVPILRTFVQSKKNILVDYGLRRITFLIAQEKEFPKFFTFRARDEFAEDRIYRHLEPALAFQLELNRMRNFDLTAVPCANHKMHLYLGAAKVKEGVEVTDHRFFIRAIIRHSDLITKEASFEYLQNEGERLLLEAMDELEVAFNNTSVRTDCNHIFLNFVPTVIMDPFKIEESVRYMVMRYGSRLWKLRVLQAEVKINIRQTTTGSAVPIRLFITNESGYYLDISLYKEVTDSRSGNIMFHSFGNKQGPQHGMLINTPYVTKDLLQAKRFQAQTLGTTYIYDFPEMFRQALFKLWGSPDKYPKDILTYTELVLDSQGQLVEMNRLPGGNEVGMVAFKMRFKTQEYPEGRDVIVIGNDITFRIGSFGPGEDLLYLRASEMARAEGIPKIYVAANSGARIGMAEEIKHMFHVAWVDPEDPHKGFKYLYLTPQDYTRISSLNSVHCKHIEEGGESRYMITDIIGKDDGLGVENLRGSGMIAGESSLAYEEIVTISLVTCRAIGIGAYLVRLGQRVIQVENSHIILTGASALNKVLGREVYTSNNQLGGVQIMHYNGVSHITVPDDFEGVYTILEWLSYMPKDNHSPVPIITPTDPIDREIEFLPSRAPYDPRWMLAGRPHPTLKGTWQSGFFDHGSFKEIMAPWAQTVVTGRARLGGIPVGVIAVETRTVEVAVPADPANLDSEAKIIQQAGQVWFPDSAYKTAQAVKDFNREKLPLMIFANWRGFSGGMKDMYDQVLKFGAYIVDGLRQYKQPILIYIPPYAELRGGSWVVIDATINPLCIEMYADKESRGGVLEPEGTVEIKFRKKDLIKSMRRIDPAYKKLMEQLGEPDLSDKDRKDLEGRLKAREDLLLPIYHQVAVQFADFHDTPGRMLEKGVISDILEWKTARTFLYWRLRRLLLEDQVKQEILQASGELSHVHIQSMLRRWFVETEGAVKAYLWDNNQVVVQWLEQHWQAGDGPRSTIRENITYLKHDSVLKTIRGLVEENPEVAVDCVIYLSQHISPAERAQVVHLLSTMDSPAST

Row | IC50 [µM] | Structure (SMILES)
1 | 0.035 | CC(=O)N[C@@H](C)c1ccc(O[C@@H]2CCN(c3ccnc(N4CCCC4)c3F)C2)cc1 [Example 10.16]
2 | 0.615 | CC(=O)N[C@@H](C)c1ccc(O[C@@H]2CCN(c3ccnc(OCC(F)F)c3OCC(F)F)C2)cc1 [Example 9.66]
3 | 0.402 | C[C@H](NC(=O)C1CC1)c1ccc(O[C@@H]2CCN(c3ccnc(OCC(F)F)c3)C2)cc1 [Example 9.42]
4 | 0.785 | CC(=O)N[C@@H](C)c1ccc(O[C@@H]2CCN(c3cccc(N4CCOCC4C)n3)C2)cc1 (stereo partly shown) [Example 10.49]
5 | 0.495 | CC(=O)N[C@@H](C)c1ccc(O[C@@H]2CCN(c3ccnc(OCC4CCCO4)c3)C2)cc1 (stereo partly shown) [Example 9.48]
6 | 0.265 | CC(=O)N[C@@H](C)c1ccc(O[C@@H]2CCN(c3ccc(Cl)c(C(F)(F)F)n3)C2)cc1 [Example 8.8]
7 | 0.125 | CC(=O)N[C@@H](C)c1ccc(O[C@@H]2CCN(c3ccnc(OCC4CCOC4)c3)C2)cc1 (stereo partly shown) [Example 9.26]
8 | 0.053 | CC(=O)N[C@@H](C)c1ccc(O[C@@H]2CCN(c3ccnc(NCC4(O)CCC4)c3F)C2)cc1 [Example 10.50]
9 | 0.035 | CC(=O)N[C@@H](C)c1ccc(O[C@@H]2CCN(c3ccnc(OCC4(C)CC4)c3)C2)cc1 [Example 9.16]
10 | 0.045 | CC(=O)N[C@@H](C)c1ccc(O[C@@H]2CCN(c3ccnc(OCC4CC4(F)F)c3Cl)C2)cc1 (stereo partly shown) [Example 9.71]
11 | 0.154 | CCN(C)c1cccc(N2CC[C@@H](Oc3ccc([C@H](C)NC(C)=O)cc3)C2)n1 [Example 10.30]
12 | 0.165 | CC(=O)N[C@@H](C)c1ccc(O[C@@H]2CCN(c3cccc(N(C)C[C@H]4CCCO4)n3)C2)cc1 [Example 10.45]
13 | 0.209 | CC(=O)N[C@@H](C)c1ccc(O[C@@H]2CCN(c3cccc(N4CCC4)n3)C2)cc1 [Example 10.11]
14 | 0.565 | CC(=O)N[C@@H](C)c1ccc(O[C@@H]2CCN(c3cc(Cl)ncc3C)C2)cc1 [Example 8.2]
15 | 0.08 | CC(=O)N[C@@H](C)c1ccc(O[C@@H]2CCN(c3ccnc(N4CCC(C)(O)C4)c3F)C2)cc1 (stereo partly shown) [Example 10.52]
16 | 0.91 | CC(=O)N[C@@H](C)c1ccc(O[C@@H]2CCN(c3cc(C(F)(F)F)ccn3)C2)cc1 [Example 8.7]
17 | 0.572 | CC(=O)N[C@@H](C)c1ccc(O[C@@H]2CCN(c3ccnc(O[C@H]4CCOC4)c3)C2)cc1 [Example 9.25]
18 | 0.062 | CC(=O)N[C@@H](C)c1ccc(O[C@@H]2CCN(c3cccc(C(F)(F)F)n3)C2)cc1 [Example 8.1, N—((S)-1-(4-((R)-1-(6-(Trifluoromethyl)pyridin-2-yl)pyrrolidin-3-yloxy)phenyl)ethyl)acetamide]
19 | 0.133 | CC(=O)N[C@@H](C)c1ccc(O[C@@H]2CCN(c3cccc(N4CCCC4C)n3)C2)cc1 (stereo partly shown) [Example 10.33]
20 | 0.251 | CCCOc1ccnc(N2CC[C@@H](Oc3ccc([C@H](C)NC(C)=O)cc3)C2)c1F [Example 9.68]
21 | 0.182 | CCCN(C)c1cccc(N2CC[C@@H](Oc3ccc([C@H](C)NC(C)=O)cc3)C2)n1 [Example 10.5]
22 | 0.059 | CCCOc1nccc(N2CC[C@@H](Oc3ccc([C@H](C)NC(C)=O)cc3)C2)c1C [Example 9.55]

Continued, molecule first:

Row | Structure (SMILES) | IC50 [µM]
23 | COc1c(N2CC[C@@H](Oc3ccc([C@H](C)NC(C)=O)cc3)C2)ccnc1OCC(C)C [Example 1.120] | 0.032
24 | CCCN(C)c1nccc(N2CC[C@@H](Oc3ccc([C@H](C)NC(C)=O)cc3)C2)c1OC [Example 1.129] | 0.21
25 | CC(=O)N[C@@H](C)c1ccc(OC2CCN(c3ccc(OCCC4CC4)cn3)C2)cc1 (stereo partly shown) [Example 1.31] | 0.139
26 | C[C@H](NC(=O)N(C)C)c1ccc(OC2CCN(c3ccc(OCC4CC4(F)F)cn3)C2)cc1 (stereo partly shown) [Example 1.54] | 0.14
27 | CC(=O)NC1CCN(C(=O)N[C@@H](C)c2ccc(OC3CCN(c4ccc(OCC5CC5(F)F)cn4)C3)cc2)C1 (stereo partly shown) [Example 3.19] | 1.44
28 | CCCNc1nccc(N2CC[C@@H](Oc3ccc([C@H](C)NC(C)=O)cc3)C2)c1Cl [Example 1.135] | 0.062
29 | C[C@H](NC(=O)C1CC1)c1ccc(OC2CCN(c3ccc(OCC4CC4(F)F)cn3)C2)cc1 (stereo partly shown) [Example 2.56] | 0.175
30 | CC(C)C(=O)N[C@@H](C)c1ccc(OC2CCN(c3cccc(C(F)(F)F)n3)C2)cc1 (stereo partly shown) [Example 2.38] | 0.869
31 | CC(=O)N[C@@H](C)c1ccc(OC2CCN(c3cccc(C(C)C)n3)C2)cc1 (stereo partly shown) [Example 1.63] | 0.055
32 | COCCNc1nccc(N2CC[C@@H](Oc3ccc([C@H](C)NC(C)=O)cc3)C2)c1F [Example 1.119] | 1.33
33 | CC(C)Oc1cc(N2CCC(Oc3ccc([C@H](C)NC(=O)c4ccno4)cc3)C2)ccn1 (stereo partly shown) [Example 2.10] | 0.67
34 | CC(=O)N[C@@H](C)c1ccc(O[C@@H]2CCN(c3nccc(N4CCCC4)c3F)C2)cc1 [Example 1.99] | 0.201
35 | C[C@H](NC=O)c1ccc(O[C@@H]2CCN(c3cccc(C(F)(F)F)n3)C2)cc1 [Example 12, N—((S)-1-(4-((R)-1-(6-(Trifluoromethyl)pyridin-2-yl)pyrrolidin-3-yloxy)phenyl)ethyl) formamide] | 0.888
36 | CCC(=O)N[C@@H](C)c1ccc(OC2CCN(c3ccnc(OC(C)C)c3)C2)cc1 (stereo partly shown) [Example 2.30] | 0.455
37 | CC(=O)Nc1nc(C)c(C(=O)N[C@@H](C)c2ccc(O[C@@H]3CCN(c4ccc(OCC5CC5(F)F)cn4)C3)cc2)s1 (stereo partly drawn) [Example 2.1, 2-Acetamido-N—((1S)-1-(4-((3R)-1-(5-((2,2-difluorocyclopropyl)methoxy)pyridin-2-yl)pyrrolidin-3-yloxy)phenyl)ethyl)-4-methylthiazole-5-carboxamide] | 0.025
38 | Cc1cc(CC(=O)N[C@@H](C)c2ccc(OC3CCN(c4ccnc(OCC(F)F)c4)C3)cc2)on1 (stereo partly shown) [Example 2.100] | 0.624
39 | C[C@H](NC(=O)c1ccno1)c1ccc(OC2CCN(c3cccc(C(F)(F)F)n3)C2)cc1 (stereo partly shown) [Example 2.52] | 0.275
40 | CC(=O)N[C@@H](C)c1ccc(O[C@@H]2CCN(c3ccnc(N4CCCC4)c3C)C2)cc1 [Example 1.125] | 0.402
41 | CC(=O)N[C@@H](C)c1ccc(OC2CCN(c3cnc(OCC4CC4(F)F)cc3C)C2)cc1 (stereo partly shown) [Example 1.40] | 0.775
42 | CC(=O)N[C@@H](C)c1ccc(O[C@@H]2CCN(c3ccc(OCC4CC4(F)F)cn3)C2)cc1 (stereo partly drawn) [Example 1.1, N—((1S)-1-(4-((3R)-1-(5-((2,2-Difluorocyclopropyl)methoxy)pyridin-2-yl)pyrrolidin-3-yloxy)phenyl)ethyl)acetamide] | 0.046

Row | Structure (SMILES) | IC50 [µM]
43 | CCNC(=O)N[C@@H](C)c1ccc(OC2CCN(c3ccnc(OCC(F)F)c3)C2)cc1 (stereo partly shown) [Example 3.16] | 0.313
44 | C[C@H](NC(=O)c1cnn(C)c1Cl)c1ccc(OC2CCN(c3ccnc(OCC4CC4)c3)C2)cc1 (stereo partly shown) [Example 2.69] | 0.281
45 | CC(=O)N[C@@H](C)c1ccc(OC2CCN(c3cc(OCC4CC4)ncc3F)C2)cc1 (stereo partly shown) [Example 1.73] | 0.059
46 | CCCN(C)c1nccc(N2CC[C@@H](Oc3ccc([C@H](C)NC(C)=O)cc3)C2)c1F [Example 1.103] | 0.07
47 | COc1c(N2CC[C@@H](Oc3ccc([C@H](C)NC(C)=O)cc3)C2)ccnc1OC(C)C [Example 1.150] | 0.069
48 | CC(=O)N[C@@H](C)c1ccc(O[C@@H]2CCN(c3ccnc(N(C)CC(F)(F)F)c3F)C2)cc1 [Example 1.112] | 0.068
49 | Cc1nocc1C(=O)N[C@@H](C)c1ccc(OC2CCN(c3ccnc(OCC(F)F)c3)C2)cc1 (stereo partly shown) [Example 2.95] | 0.049
50 | C[C@H](NC(=O)c1cncs1)c1ccc(O[C@@H]2CCN(c3ccc(OCCCF)cn3)C2)cc1 [Example 1.82] | 0.11
51 | C[C@H](NC(=O)c1cncs1)c1ccc(OC2CCN(c3ccnc(N4CCC(F)(F)C4)c3F)C2)cc1 (stereo partly shown) [Example 2.125] | 0.06
52 | C[C@H](NC(=O)c1cnco1)c1ccc(OC2CCN(c3cccc(C(F)(F)F)n3)C2)cc1 (stereo partly shown) [Example 2.122] | 0.085
53 | CC(=O)N[C@@H](C)c1ccc(OC2CCN(c3cccc(C(C)(C)C)n3)C2)cc1 (stereo partly shown) [Example 1.59] | 0.15
54 | CCOc1ccc(N2CCC(Oc3ccc([C@H](C)NC(C)=O)cc3)C2)nc1 (stereo partly shown) [Example 1.6] | 0.306
55 | C[C@H](NC(=O)c1cc[nH]n1)c1ccc(OC2CCN(c3cccc(C(F)(F)F)n3)C2)cc1 (stereo partly shown) [Example 2.64] | 0.045
56 | CC(C)Oc1cc(N2CCC(Oc3ccc([C@H](C)NC(=O)N(C)C)cc3)C2)ccn1 (stereo partly shown) [Example 3.2] | 0.065
57 | C[C@H](NC(=O)c1cnc(N)o1)c1ccc(OC2CCN(c3ccc(OCC4CC4(F)F)cn3)C2)cc1 (stereo partly shown) [Example 2.57] | 0.255
58 | C[C@H](NC(=O)CO)c1ccc(OC2CCN(c3ccnc(OCC4CC4)c3)C2)cc1 (stereo partly shown) [Example 2.72] | 0.13
59 | C[C@H](NC(=O)C(F)(F)F)c1ccc(OC2CCN(c3ccnc(OCC(F)F)c3)C2)cc1 (stereo partly shown) [Example 2.113] | 0.077
60 | CCOc1cc(N2CCC(Oc3ccc([C@H](C)NC(C)=O)cc3)C2)ccn1 (stereo partly shown) [Example 1.12] | 0.265
61 | C[C@H](NC(=O)C(C)(F)F)c1ccc(OC2CCN(c3ccc(OCC4CC4(F)F)cn3)C2)cc1 (stereo partly shown) [Example 2.35] | 0.276
